Reference: ChEMBL document CHEMBL1157646, “Melanogenesis inhibitors from the desert plant Anastatica hierochuntica in B16 melanoma cells” (Bioorg Med Chem, 2010)
Each block holds one compound with its values, some of them ahead of it. Activity calls are given as the source filed them. The rule behind the calls is not given here.

Key:
[1] = Toxicity in mouse B16-4A5 cells assessed as inhibition of cell proliferation at 10 uM in presence of 1 mM theophylline after 72 hrs by WST8 dye reduction assay; type: cell-based
[2] = cells; details: Mus musculus, B16-4A5, 72 h, read-out: INH
Description: Inhibition of theophylline-stimulated melanogenesis in mouse B16-4A5 cells at 10 uM after 72 hrs

[3] = Toxicity in mouse B16-4A5 cells assessed as inhibition of cell proliferation at 3 uM in presence of 1 mM theophylline after 72 hrs by WST8 dye reduction assay; type: cell-based
[4] = Toxicity in mouse B16-4A5 cells assessed as inhibition of cell proliferation in presence of 1 mM theophylline after 72 hrs by WST8 dye reduction assay; type: cell-based
[5] = Toxicity in mouse B16-4A5 cells assessed as inhibition of cell proliferation at 1 uM in presence of 1 mM theophylline after 72 hrs by WST8 dye reduction assay; type: cell-based
[6] = Toxicity in mouse B16-4A5 cells assessed as inhibition of cell proliferation at 30 uM in presence of 1 mM theophylline after 72 hrs by WST8 dye reduction assay; type: cell-based
[7] = cells; details: Mus musculus, B16-4A5, 72 h, read-out: INH; remark: listed apart in the source
Description: Inhibition of theophylline-stimulated melanogenesis in mouse B16-4A5 cells at 30 uM after 72 hrs

[8] = cells; details: Mus musculus, B16-4A5, 72 h, read-out: INH; remark: listed apart in the source
Description: Inhibition of theophylline-stimulated melanogenesis in mouse B16-4A5 cells at 3 uM after 72 hrs

[9] = cells; details: Mus musculus, B16-4A5, 72 h, read-out: INH; remark: listed apart in the source
Description: Inhibition of theophylline-stimulated melanogenesis in mouse B16-4A5 cells at 1 uM after 72 hrs

[10] = target: T1, Tyrosinase (Agaricus bisporus) (UniProt O42713); assay: Inhibition of mushroom tyrosinase assessed as inhibition of melanin production from dopachrome by autoxidation at 100 uM
T1 sequence (whole entry): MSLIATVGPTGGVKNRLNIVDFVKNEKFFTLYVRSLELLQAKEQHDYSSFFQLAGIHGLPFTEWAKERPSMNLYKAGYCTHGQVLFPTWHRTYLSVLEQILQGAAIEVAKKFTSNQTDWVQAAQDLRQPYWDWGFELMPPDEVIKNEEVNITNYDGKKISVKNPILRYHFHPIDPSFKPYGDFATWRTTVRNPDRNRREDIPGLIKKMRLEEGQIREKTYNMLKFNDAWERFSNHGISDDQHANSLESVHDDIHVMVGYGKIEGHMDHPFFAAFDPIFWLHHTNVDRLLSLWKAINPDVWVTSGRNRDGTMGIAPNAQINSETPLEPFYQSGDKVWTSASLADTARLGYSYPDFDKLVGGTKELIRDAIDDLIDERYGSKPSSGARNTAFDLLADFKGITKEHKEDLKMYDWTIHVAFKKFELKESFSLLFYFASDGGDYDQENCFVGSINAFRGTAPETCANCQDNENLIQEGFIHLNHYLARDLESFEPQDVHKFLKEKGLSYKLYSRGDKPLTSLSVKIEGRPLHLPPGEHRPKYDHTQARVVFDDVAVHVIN

[11] = target: T1, Tyrosinase (Agaricus bisporus); assay: Inhibition of mushroom tyrosinase at 3 uM
[12] = target: T1, Tyrosinase (Agaricus bisporus); assay: Inhibition of mushroom tyrosinase at 1 uM

SMILES: COc1cc(C(O)C(CO)Oc2ccc(/C=C/C=O)cc2OC)ccc1O (stereo unspecified)
inhibition at 72 h, 10 µM [1]: 68.6% | inhibition at 10 µM [2]: < 15.4% | inhibition at 72 h, 3 µM [3]: 13.6% | IC50 at 72 h [4]: 6.9 µM | inhibition at 72 h, 1 µM [5]: 2.2% | inhibition at 72 h, 30 µM [6]: 91.5%

SMILES: COc1cc(C(=O)CO)ccc1O
inhibition at 30 µM [7]: < 15.4% | inhibition at 72 h, 30 µM [6]: < 8.8%

SMILES: COc1cc([C@@H]2Oc3c(O)cc([C@H]4Oc5cc(O)cc(O)c5C(=O)[C@@H]4O)cc3[C@H]2CO)ccc1O [SILICRISTIN A]
inhibition at 10 µM [2]: 3.8% | inhibition at 3 µM [8]: 1.3% | inhibition at 1 µM [9]: 4.1% | inhibition at 30 µM [7]: 17.4% | inhibition at 72 h, 30 µM [6]: < 8.8%

inhibition [11]: 6.7% | inhibition [12]: 6.4%
SMILES: O=C1C[C@@H](c2ccc(O)cc2)Oc2cc3oc4cc(O)c(O)cc4c3c(O)c21 [ANASTATIN A]
inhibition at 10 µM [2]: 35.9% | inhibition [10]: inactive | inhibition at 3 µM [8]: 14.9% | inhibition at 1 µM [9]: 7.1% | inhibition at 30 µM [7]: 65.1% | inhibition at 72 h, 30 µM [6]: < 8.8%

SMILES: COc1cc([C@@H]2Oc3c(O)cc(C=O)cc3[C@H]2CO)ccc1O [HIEROCHIN C]
inhibition at 10 µM [2]: 27.6% | inhibition at 3 µM [8]: 6.6% | inhibition at 1 µM [9]: -1% | inhibition at 30 µM [7]: 44.6% | inhibition at 72 h, 30 µM [6]: < 8.8%

SMILES: COc1cc(C(C)=O)ccc1O [APOCYNIN]
inhibition at 10 µM [2]: 18.9% | inhibition at 3 µM [8]: 17.5% | inhibition at 1 µM [9]: 16.8% | inhibition at 30 µM [7]: 20.2% | inhibition at 72 h, 30 µM [6]: < 8.8%

SMILES: COc1cc(C[C@H]2CO[C@H](c3ccc(O)c(OC)c3)[C@H]2CO)ccc1O [LARICIRESINOL]
inhibition at 30 µM [7]: < 15.4% | inhibition at 72 h, 30 µM [6]: < 8.8%

SMILES: O=C1C[C@@H](c2ccc(O)cc2)Oc2c1c(O)cc1oc3cc(O)c(O)cc3c21 [ANASTATIN B]
inhibition at 10 µM [2]: 19.5% | inhibition at 3 µM [8]: 10.1% | inhibition at 1 µM [9]: -1.1% | inhibition at 30 µM [7]: 40.3% | inhibition at 72 h, 30 µM [6]: < 8.8%

SMILES: O=C(O)c1ccc(O)cc1 [PARABEN]
inhibition at 30 µM [7]: < 15.4% | inhibition at 72 h, 30 µM [6]: < 8.8%

SMILES: COc1cc([C@@H](O)[C@@H](CO)c2ccc(O)c(OC)c2)ccc1O (relative stereo)
inhibition at 10 µM [2]: 21.3% | inhibition at 3 µM [8]: 20.8% | inhibition at 1 µM [9]: 14.9% | inhibition at 30 µM [7]: 27.3% | inhibition at 72 h, 30 µM [6]: < 8.8%

SMILES: O=C1C[C@@H](c2ccc(O)cc2)Oc2cc(O)cc(O)c21 [NARINGENIN]
inhibition at 10 µM [2]: 22.5% | inhibition at 3 µM [8]: 13.9% | inhibition at 1 µM [9]: 14.4% | inhibition at 30 µM [7]: 16.9% | inhibition at 72 h, 30 µM [6]: < 8.8%

SMILES: COc1cc(C(O)C(CO)Oc2ccc(/C=C/CO)cc2OC)ccc1O (stereo unspecified)
inhibition at 10 µM [2]: 24.5% | inhibition [10]: inactive | inhibition at 3 µM [8]: 11.7% | inhibition at 1 µM [9]: 8.8% | inhibition at 30 µM [7]: 52.9% | inhibition at 72 h, 30 µM [6]: < 8.8%

SMILES: COc1cc(C(=O)CCO)ccc1O
inhibition at 30 µM [7]: < 15.4% | inhibition at 72 h, 30 µM [6]: < 8.8%

inhibition [11]: 4.2% | inhibition [12]: 1.6%
SMILES: COc1cc(/C=C/C=O)ccc1O [CONIFERYL ALDEHYDE]
inhibition at 72 h, 10 µM [1]: -0.5% | inhibition at 10 µM [2]: 14% | inhibition at 3 µM [8]: 11.6% | inhibition at 1 µM [9]: 10.3% | inhibition at 72 h, 3 µM [3]: -3.2% | inhibition at 30 µM [7]: 39.1% | inhibition at 72 h, 1 µM [5]: -4.2% | inhibition at 72 h, 30 µM [6]: 11.5%

SMILES: C[C@@H]1O[C@@H](OC[C@H]2O[C@@H](Oc3c(-c4ccc(O)c(O)c4)oc4cc(O)cc(O)c4c3=O)[C@H](O)[C@@H](O)[C@@H]2O)[C@H](O)[C@H](O)[C@H]1O [RUTIN]
inhibition at 10 µM [2]: 4.3% | inhibition at 3 µM [8]: 3.1% | inhibition at 1 µM [9]: 4.5% | inhibition at 30 µM [7]: 5.2% | inhibition at 72 h, 30 µM [6]: < 8.8%

SMILES: COc1cc(C(=O)[C@H](CO)c2ccc(O)c(OC)c2)ccc1O [(-)-EVOFOLIN B]
inhibition at 10 µM [2]: 16.4% | inhibition at 3 µM [8]: 15% | inhibition at 1 µM [9]: 18.2% | inhibition at 30 µM [7]: 23.5% | inhibition at 72 h, 30 µM [6]: < 8.8%

SMILES: O=C(O)c1ccc(O)c(O)c1 [PROTOCATECHUIC ACID]
inhibition at 30 µM [7]: < 15.4% | inhibition at 72 h, 30 µM [6]: < 8.8%

SMILES: COc1ccc([C@@H]2Oc3c(O)cc(/C=C/C=O)cc3[C@H]2CO)cc1OC
inhibition at 10 µM [2]: 33.6% | inhibition [10]: inactive | inhibition at 3 µM [8]: 8.4% | inhibition at 1 µM [9]: 10.7% | inhibition at 30 µM [7]: 76.8% | inhibition at 72 h, 30 µM [6]: < 8.8%
